{"source": "patent US7326686B2", "about": "“Compounds and methods for regulating cell adhesion” (Adherex Inc., priority 1997, dated 2008)", "key": {"[1]": {"tested_on": "Schwann cell-astrocyte adhesion", "assay": "Schwann cell-astrocyte adhesion assay (Dil-labelled Schwann cells on astrocyte monolayer, shaking platform 30 min)", "format": "cell-based, rat", "experimental": "The effect of a modulating agent on Schwann cell adhesion to astrocytes may generally be evaluated using a cell adhesion assay. Briefly, Schwann cells fluorescently labeled with Di-I may be plated onto an astrocytic surface (e.g., a glass coverslip coated with a monolayer of astrocytes) and incubated on a shaking platform (e.g., 25 rpm for 30 minutes) in the presence and absence of modulating agent (e.g., LRAHAVDING (SEQ ID NO: 21) at a concentration of 1 mg/mL). Cells may then be washed (e.g., in Hanks medium) to remove non-attached cells. The attached cells may then be fixed and counted (e.g., using a fluorescent microscope). In general, 1 mg/mL of a modulating agent results in an increase or decrease in cell adhesion of at least 50%. This assay evaluates the effect of a modulating agent on N-cadherin mediated cell adhesion.\nIn order to test whether the migratory behavior of Schwann cells on different cell types was a function of adhesivity to the substratum, Dil-labeled Schwann cells were plated onto either astrocytic, fibroblasts, Schwann cell or laminin surfaces. 20,000 Dil-labeled Schwann cells were placed in a 15 mm diameter well in 0.5 ml of medium over a 13 mm glass coverslip coated with laminin, or a complete monolayer of astrocytes, fibroblasts or Schwann cells and then placed onto a shaking platform (25 rpm) for 30 minutes in an incubator. The coverslips were washed three times in Hanks after 30 minutes to remove any non-attached cells and the remainder were fixed for 20 minutes in 4% paraformaldehyde. The number of Dil-labeled Schwann cells that were attached to the coverslip were counted using a Leitz Diaplan fluorescent microscope under rhodamine optics.\nIn order to reduce extracellular calcium, DMEM was replaced by S-MEM (Joklik's modification; Gibco) with 0.2 mM calcium chloride added or the calcium buffer EGTA (Sigma) was employed. Adhesion assays in the absence of external calcium were performed using Schwann cells and astrocytes. Either a low calcium solution (S-MEM in place of DMEM with 0.2 mM calcium chloride) or a calcium buffer (EGTA in a normal DMEM medium) was used in these assays. […] EGTA concentrations less than 1.3 mM had little effect upon Schwann cell migration whereas those above 1.8 mM caused disruption of the astrocytic monolayer (data not shown). Adhesion of Schwann cells to astrocytes in the presence of the standard DMEM based medium was taken as the control and assigned the normalized value of 1.0±0.03. Low calcium solutions reduced intercellular adhesion to 0.47±0.09 and the addition of 1.6 mM EGTA to DMEM reduced adhesion to 0.39±0.05 (FIG. 10A). […]"}, "[2]": {"tested_on": "Schwann cell migration on astrocytes", "assay": "Micro-inverted-coverslip migration assay on astrocyte monolayers", "format": "cell-based, rat", "experimental": "Schwann cell migration may generally be evaluated using a micro-inverted-coverslip assay. In this assay, a dense Schwann cell culture is established on coverslip fragments and Schwann cell migration away from the fragment edge is measured. Briefly, Schwann cells fluorescently labeled with Di-I may be plated on polylysine- and laminin-coated fragments of a glass coverslip and allowed to bind to the surface for 16-18 hours. Cells may then be washed (e.g., in Hanks medium) to remove non-attached cells, and then inverted, with cells facing downward onto an astrocyte-coated surface. Cultures are then incubated further for 2 days in the presence or absence of modulating agent (e.g., LRAHAVDING (SEQ ID NO: 21) at a concentration of 1 mg/mL) and fixed. The maximum migration distance from the edge of the coverslip fragment may then be measured. At a level of 1 mg/mL, modulating agent results in an increase or decrease in the maximum migration distance of at least 50%. This assay evaluates the effect of a modulating agent on N-cadherin mediated cell adhesion.\nIn order to assess the rates of Schwann cell migration on different surfaces, the micro-inverted-coverslip migration assay was employed. This is a variation of the technique first described by Fok-Seang et al., Dev. Biol. 171:1-15, 1995. Schwann cells fluorescently labeled with Di-I (25 μg/ml) were evenly plated onto polylysine and laminin coated fragments of glass coverslip (1×2 mm). After 16-18 hours, the pieces of glass coated with Di-I labeled Schwann cells were dipped into Hanks three times to remove any loosely attached cells and then inverted with cells facing downwards onto laminin-coated tissue culture surfaces or onto cell monolayers. These cultures were then incubated for a further two days and fixed for 20 minutes with 4% paraformaldehyde. The maximum migration distance was measured, and the number of cells in bands of 0.1 mm progressing outwards from the edge of the coverslip were counted.\nIn this assay, a dense Schwann cell culture is established on coverslip fragments and their migration away from its edge measured. The assay therefore measures the ability of Schwann cells to migrate on a surface, and their ability to migrate away from a confluent Schwann cell monolayer. The migration front of the foremost cells was measured, and the number of cells against distance of migration plotted. Schwann cell-laden fragments were placed on laminin to give a baseline migration rate on a favorable defined surface, and laminin controls were done for comparison on each assay."}, "[3]": {"conditions": "peptide 1 mg/ml, adhesion in the absence of peptide = 1.0±0.05, mean±S.E.M."}}, "note": "Where no end group is shown, it is not given here."}
{"compound": "O=C(O)CN(CCOCCOCCN(CC(=O)O)CC(=O)O)CC(=O)O", "note": "[EGTA]", "values": [{"measurement": "Schwann cell-astrocyte adhesion, normalized", "setting": "[1]; 1.6 mM EGTA added to DMEM, standard DMEM control = 1.0±0.03", "result": "0.39±0.05"}, {"measurement": "extent of Schwann cell migration upon astrocyte monolayers", "setting": "[2]; EGTA 1.6 mM, control migration 0.25±0.03", "result": 0.86, "unit": "mm"}, {"measurement": "concentrations causing disruption of the astrocytic monolayer", "setting": "[2]; data not shown", "result": "above 1.8 mM"}, {"measurement": "concentrations with little effect upon Schwann cell migration", "setting": "[2]; data not shown", "result": "less than 1.3 mM"}, {"measurement": "optimal concentration for Schwann cell migration", "setting": "[2]; various concentrations of EGTA tested (data not shown)", "result": 1.6, "unit": "mM"}]}
{"compound": "LRAHAVDING-NH2", "values": [{"measurement": "Schwann cell-astrocyte adhesion, normalized", "setting": "[1]; [3]", "result": "0.38±0.07"}]}
{"compound": "LRAHGVDING-NH2", "values": [{"measurement": "Schwann cell-astrocyte adhesion, normalized", "setting": "[1]; [3]", "result": "0.78±0.10"}]}
{"compound": "MRAHAVDING-NH2", "values": [{"measurement": "Schwann cell-astrocyte adhesion, normalized", "setting": "[1]; [3]", "result": "0.39±0.04"}]}
